Experimental findings from US11274084B2, “3-aryl-4-amido-bicyclic [4,5,0] hydroxamic acids as HDAC inhibitors” (Valo Health, Inc., priority 2015, dated 2022) are described below.

This assay has as its target T1, HDAC6 (Homo sapiens, UniProt Q9UBN7).
T1 construct: Full length human recombinant HDAC6 protein; made in house
T1 sequence (Q9UBN7 1-1215): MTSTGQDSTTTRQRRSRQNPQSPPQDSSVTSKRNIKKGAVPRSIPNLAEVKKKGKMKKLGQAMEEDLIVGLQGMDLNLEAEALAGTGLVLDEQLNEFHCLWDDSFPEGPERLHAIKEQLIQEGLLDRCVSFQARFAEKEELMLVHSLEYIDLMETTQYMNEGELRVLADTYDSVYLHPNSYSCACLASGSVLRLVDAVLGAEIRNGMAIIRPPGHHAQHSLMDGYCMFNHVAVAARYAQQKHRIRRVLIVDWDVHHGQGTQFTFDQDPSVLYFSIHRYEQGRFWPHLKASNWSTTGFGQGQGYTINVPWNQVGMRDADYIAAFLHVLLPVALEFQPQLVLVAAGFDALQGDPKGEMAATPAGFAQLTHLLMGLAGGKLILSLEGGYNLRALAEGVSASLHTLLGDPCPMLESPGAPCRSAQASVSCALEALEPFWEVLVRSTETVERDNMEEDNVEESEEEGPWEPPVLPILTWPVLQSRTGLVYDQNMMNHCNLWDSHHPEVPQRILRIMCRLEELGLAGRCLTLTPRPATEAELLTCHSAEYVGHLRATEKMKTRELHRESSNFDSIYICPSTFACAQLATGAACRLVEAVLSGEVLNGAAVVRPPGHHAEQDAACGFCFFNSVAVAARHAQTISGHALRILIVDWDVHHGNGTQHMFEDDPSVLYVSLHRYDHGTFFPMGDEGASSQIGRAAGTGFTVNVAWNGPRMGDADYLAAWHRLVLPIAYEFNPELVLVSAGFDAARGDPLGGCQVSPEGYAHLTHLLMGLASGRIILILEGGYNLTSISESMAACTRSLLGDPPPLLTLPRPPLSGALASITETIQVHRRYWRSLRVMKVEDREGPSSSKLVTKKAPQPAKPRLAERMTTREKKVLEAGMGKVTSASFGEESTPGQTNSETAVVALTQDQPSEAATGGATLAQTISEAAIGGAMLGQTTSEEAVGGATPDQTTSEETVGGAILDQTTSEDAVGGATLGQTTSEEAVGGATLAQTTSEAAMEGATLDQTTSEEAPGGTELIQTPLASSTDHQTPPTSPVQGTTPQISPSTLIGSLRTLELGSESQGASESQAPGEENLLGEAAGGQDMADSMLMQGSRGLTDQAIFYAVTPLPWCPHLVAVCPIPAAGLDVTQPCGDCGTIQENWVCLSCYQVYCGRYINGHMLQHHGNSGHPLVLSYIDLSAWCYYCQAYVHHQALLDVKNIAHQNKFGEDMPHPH
Nature of the assay: In vitro histone deacetylase assay: enzymatic HDAC6 assay by electrophoretic mobility shift. Type of assay: biochemical. The conditions noted are these: full length human recombinant HDAC6 1 nM, 2 μM peptide substrate RHKK(Ac)-NH2, 25° C., 12 concentrations; read-out: Inhibitory Concentration (IC50) against HDAC6, Activity Range. The method, then:
The enzymatic HDAC6 assay was performed using electrophoretic mobility shift assay. […] The enzymatic reactions were assembled in 384-well plates in a total volume of 25 μL of a reaction buffer comprising. 100 mM HEPES, pH 7.5, 25 mM KCl, 0.1% bovine serum albumin, 0.01% Triton X-100, 1% DMSO (from compounds), 2 μM of the fluorescently labeled peptide substrate, and enzyme. The enzyme was added at a final concentration of 1 nM. The peptide substrate RHKK(Ac)-NH2 was used. The compounds were tested at 12 concentrations spaced by 3× dilution intervals. Negative control samples (0%-inhibition in the absence of inhibitor) and positive control samples (100%-inhibition) were assembled in replicates of four in each assay plate. The reactions were incubated at 25° C. and quenched by the addition of 45 μL of termination buffer (100 mM HEPES, pH 7.5, 0.01% Triton X-100, 0.05% SDS).
The terminated assay plates were analyzed on LabChip® 3000 microfluidic electrophoresis instrument (Perkin Elmer/Caliper Life Sciences). The fluorescence intensity of the electrophoretically separated de-acetylated product and substrate peptide was measured. Activity in each sample was determined as the product to sum ratio (PSR):P/(S+P), where P is the peak height of the product peptide and S is the peak height of the substrate peptide. Percent inhibition (Pinh) is determined using the following equation:
Pinh=(PSR0%−PSRinh)/(PSR0%−PSR100%)*100, where PSRinh is the product sum ratio in the presence of inhibitor, PSR0% is the average product sum ration in the absence of inhibitor, and PSR100% is the average product sum ratio in 100%-inhibition control samples. The IC50 values of inhibitors were determined by fitting the %-inhibition curves with 4 parameter dose-response models using XLfit 4 software.

For `COCC1(C(=O)N2Cc3ccc(C(=O)NO)cc3OC[C@@H]2c2ccccc2)CC1` [(S)—N-hydroxy-4-(1-(methoxymethyl)cyclopropane-1-carbonyl)-3-phenyl-2,3,4,5-tetrahydrobenzo[f][1,4]oxazepine-8-carboxamide], the IC50 was ≤ 0.1 µM.
